Assay results reported in paper PMC6359803, “Inhibition of inflammatory response in human keratinocytes by magnetic nanoparticles functionalized with PBP10 peptide derived from the PIP2-binding site of human plasma gelsolin” (Journal of Nanobiotechnology, 2019).
Where two headings read alike, the source gives them in different places. Ends that are not written are not given here. Peptide text beside a SMILES is read from it. * marks the point of attachment. RhodamineB = CCN(CC)c1ccc2c(-c3ccccc3C(=O)*)c3ccc(=[N+](CC)CC)cc-3oc2c1

Assays:
HaCaT cells [1] = test: IL-8 release (ELISA); type: cell-based, human; conditions: 24 h
Procedure: In order to assess release of interleukin-8 (IL-8) from stimulated keratinocytes, 5 × 10^4 HaCaT cells were treated with agents at concentrations of 2, 5 and 10 µg/mL and stimulated with 1 µg/mL LPS/LTA. The medium from LPS/LTA-treated cells was harvested after 24 h of incubation and the level of IL-8 was evaluated using an IL-8 Human ELISA Kit (Thermo Fisher Scientific).

A549 cells = test: Cell stiffness by atomic force microscopy (AFM) indentation; type: cell-based, human; conditions: 1 µg/mL LPS 24 h, agent 5 µg/mL
Procedure: The stiffness of cells after 24 h stimulation with 1 µg/mL LPS was measured by indentation using atomic force microscopy (Nanowizard 4 Bioscience AFM, JPK Instruments, Germany). Adenocarcinomic human alveolar basal epithelial cells (A549 ATCC® CCL-185™) were cultured in high-glucose DMEM supplemented with 10% FBS at 37 °C with 5% CO2, placed on Ø 35 mm Petri dishes and allowed to attach and spread for 24 h before simultaneous stimulation with 1 µg/mL LPS (E. coli 026:B6) and treatment with 5 µg/mL of PBP10 or PBP10-based nanosystems. Immediately before the experiment, cells were placed in a CO2-independent buffer (Thermo Fisher Scientific, USA) to prevent changes in pH of the cellular environment during analysis. Elasticity measurements were taken with AFM working in force spectroscopy mode in liquid conditions, and cantilevers (ORC8, Bruker) with a spring constant of 0.1 N/m were used. From each tested cell, up to 64 force-indentation curves were collected in a grid of 8 × 8 pixels corresponding to a scan area of 10 × 10 µm with a maximal force of 2 nN. For indentation measurements, more than 1100 force-distance curves were recorded for each group from at least ten different cells. To determine the apparent Young’s modulus of different cells, force-indentation curves were fit to the Hertz contact model.

[2] = MTT viability / metabolic activity assay; type: cell-based, human; conditions: human
Procedure: (§1) The viability and metabolic activity of cells were measured using a microculture tetrazolium test (MTT; 3-(4,5-dimethylthiazol-2-yl)-2,5-diphenyltetrazolium bromide) as described previously. HaCaT cells were seeded at a density of 5 × 10^4 cells/well in transparent 96-well plates and cultured until ~ 85% confluence; after that medium was replaced with serum-free medium and cells were serum starved for another 12 h. To determine the non-toxic concentrations, the peptides and their magnetic derivatives in concentrations ranging from 1 to 50 µg/mL were added to each well and incubated for 24 h at 37 °C under 5% CO2. The optical density at 490 nm was assessed after 2 h incubation of plates with MTT solution (5 mg/mL) and the addition of formazan salt in dimethyl sulfoxide (DMSO). The absorbance value obtained in cultures of control cells (with solvents alone) was taken as 100%. The average of all the experiments is shown as cell viability percentage in comparison to the control.

E. coli RS218 = test: Killing assay (CFU counting); type: cell-based, Escherichia coli; conditions: E. coli RS218, 1 h, doses 2-10 µg/mL, dose-dependent
Procedure: (§2) To assess the bactericidal activity of PBP10-derived peptides and PBP10-containing nanosystems against E. coli and S. aureus bacterial strains, a killing assay based on counting colony forming units (CFU) was performed. For this purpose, E. coli and S. aureus strains were grown to mid-log phase at 37 °C, re-suspended in PBS, brought to 10^8 CFU/ml (which corresponds to 0.5 OD at a wavelength 600 nm) and diluted 1:100 to obtain sample containing approx. 10^6 CFU/mL. Bacteria were then added to PBS containing different concentrations of PBP10, RhB-PBP10 and RhB-PBP10-Cys and their nanosystems at doses of 2, 5 and 10 µg/mL. After 1 h of incubation at 37 °C, the plates were transferred to ice and suspensions were diluted 10- to 1000-fold in PBS. Then, 10 μL aliquots were spotted on agar plates for overnight culture at 37 °C in order to determine CFUs.

S. aureus A1 = test: Killing assay (CFU counting); type: cell-based, Staphylococcus aureus; conditions: S. aureus A1, 1 h, doses 2-10 µg/mL, dose-dependent
Procedure: as §2

[3] = Fluorescence of unbound peptide after magnetic separation; type: physicochemical; conditions: fluorescence relative to 1 mg/mL free peptide
Procedure: PBP10-containing nanosystems were obtained by non-covalent bonding including electrostatic interactions or chemisorption of thiol groups to the gold surface. Nanoparticles (MNP@NH2 or MNP@Au) were dispersed in PBS to obtain solutions of 10 mg/mL concentration. Then nanoparticles were diluted to the concentration of 1 mg/mL and were mixed with the appropriate amount (1:1 volume ratio) of PBP peptide or PBP modified by cysteine and rhodamine (1 mg/mL solutions in PBS buffer). Prepared solutions were incubated for 2 days (nucleation) and used for further investigations. In order to avoid the loss of agents during the preparation process, no further purification of nanosystems was performed. To evaluate the efficiency of peptide attachment, fluorescence of unbound PBP10 peptides in solutions after magnetic separation of nanosystems was measured.

HaCaT cells [4] = test: Nitric oxide assay (nitrite, Griess reagent); type: cell-based, human; conditions: 1 µg/mL LTA-stimulated HaCaT, 10 µg/mL agent, 24 h
Procedure: The nitric oxide assay was performed as described previously and the quantity of nitrite in the culture medium was measured as an indicator of NO production. Amounts of nitrite, a stable metabolite of NO, were measured using the Griess reagent (1% sulfanilamide and 0.1% naphthylethylenediamine dihydrochloride in 2.5% phosphoric acid). Briefly, 5 × 10^4 HaCaT cells were seeded in transparent 96-well plates and cultured until 85% confluence was reached. After that, cells were washed with PBS, and agents at final concentrations of 2, 5 and 10 µg/mL were added to each well. Simultaneously, keratinocytes were stimulated with 1 µg/mL LPS (E. coli 026:B6), 1 µg/mL LTA (from Staphylococcus aureus) or heat-inactivated suspensions of E. coli or S. aureus (~ 10^6 CFU/mL) and incubated in serum-free medium for 24 h. Next, 50 µL of cell culture medium was mixed with 50 µL of Griess reagent, incubated at room temperature for 15 min, and the absorbance at 540 nm was measured in a microplate reader. Fresh culture medium was used as a blank in every experiment.

HaCaT cells [5] = test: ROS formation (DFCH-DA fluorescence); type: cell-based, human; conditions: 1 µg/mL LPS-stimulated HaCaT, 10 µg/mL agent, 24 h
Procedure: The generation of reactive oxygen species from stimulated HaCaT cells was measured using 2′,7′-dichlorofluorescein diacetate (DFCH-DA) as the fluorescent probe. For this purpose, 5 × 10^4 of HaCaT cells, cultured until ~ 85% confluence and incubated simultaneously with peptides or their magnetic derivatives at concentrations of 2, 5 and 10 µg/mL and with 1 µg/mL LPS/LTA or heat-inactivated bacteria for 24 h. Next, cells were washed twice with PBS, and DFCH-DA in PBS at the concentration of 20 µM was added. Fluorescence was measured for 90 min immediately after the addition of the dye at excitation/emission wavelengths of 488/535 nm.

HaCaT cells [6] = test: MTT viability / metabolic activity assay; type: cell-based, human; conditions: 24 h
Procedure: as §1

## Lipopolysaccharide from Escherichia coli O26:B6 [LPS]
HaCaT cells [1]; 1 µg/mL LPS-stimulated HaCaT
  IL-8 level: 504.9 ± 49.39 pg/mL
A549 cells; indentation depth 1 µm
  Young's modulus: 3.1 ± 0.08 kPa
A549 cells; indentation depth 300 nm
  Young's modulus: 4.3 ± 0.07 kPa

## CCN(CC)c1ccc2c(-c3ccccc3C(=O)N[C@@H](CCC(N)=O)C(=O)N[C@@H](CCCNC(=N)N)C(=O)N[C@@H](CC(C)C)C(=O)N[C@@H](Cc3ccccc3)C(=O)N[C@@H](CCC(N)=O)C(=O)N[C@H](C(=O)N[C@@H](CCCCN)C(=O)NCC(=O)N[C@@H](CCCNC(=N)N)C(=O)N[C@@H](CCCNC(=N)N)C(=O)N[C@@H](CS)C(=O)O)C(C)C)c3ccc(=[N+](CC)CC)cc-3oc2c1 [RhB-PBP10-Cys] (RhodamineB-QRLFQVKGRRC-OH; N-terminus and C-terminus assumed)
[2]; 10 µg/mL, 24 h, control = 100%, read-out: viability of HaCaT cells
  viability at 24 h, 10 µg/mL: 80 ± 6.6%
E. coli RS218
  decrease of bacterial viability: more than 95%
S. aureus A1
  decrease of bacterial viability: more than 95%
[3]
  % of remaining peptide (unbound) in solution after magnetic separation: ≤ 5%

## lipoteichoic acid from Staphylococcus aureus [LTA]
HaCaT cells [1]; 1 µg/mL LTA-stimulated HaCaT
  IL-8 level: 749.2 ± 55.81 pg/mL

## CCN(CC)c1ccc2c(-c3ccccc3C(=O)N[C@@H](CCC(N)=O)C(=O)N[C@@H](CCCNC(=N)N)C(=O)N[C@@H](CC(C)C)C(=O)N[C@@H](Cc3ccccc3)C(=O)N[C@@H](CCC(N)=O)C(=O)N[C@H](C(=O)N[C@@H](CCCCN)C(=O)NCC(=O)N[C@@H](CCCNC(=N)N)C(=O)N[C@@H](CCCNC(=N)N)C(=O)O)C(C)C)c3ccc(=[N+](CC)CC)cc-3oc2c1 [RhB-PBP10, rhodamine B-QRLFQVKGRR] (RhodamineB-QRLFQVKGRR-OH; N-terminus and C-terminus assumed)
E. coli RS218
  decrease of bacterial viability: more than 95%
S. aureus A1
  decrease of bacterial viability: more than 95%
HaCaT cells [4]
  NO production (% of untreated stimulated control): 63.16 ± 14.01%
HaCaT cells [5]
  ROS production (% of untreated stimulated control): 30.33 ± 3.31%

## QRLFQVKGRR [PBP10, QRLFQVKGRR]
[2]
  viability at 24 h, 10 µg/mL: 83 to 101%
HaCaT cells [6]
  IC50: > 50 µg/mL
